pEC50: −log10 of the molar value.
Key:
[1] = biological target: T1, human 5-HT1A receptor (Homo sapiens, UniProt P08908); assay: 5-HT1A Radioligand Binding Assay; details: 1 μM test compound; competition with 0.9 nM [3H]-8-OH-DPAT; membranes of 5-HT1A expressing CHO-K1 cells
T1 construct: expressed in transfected cells; host or cells: CHO-K1
T1 sequence (P08908 1-422): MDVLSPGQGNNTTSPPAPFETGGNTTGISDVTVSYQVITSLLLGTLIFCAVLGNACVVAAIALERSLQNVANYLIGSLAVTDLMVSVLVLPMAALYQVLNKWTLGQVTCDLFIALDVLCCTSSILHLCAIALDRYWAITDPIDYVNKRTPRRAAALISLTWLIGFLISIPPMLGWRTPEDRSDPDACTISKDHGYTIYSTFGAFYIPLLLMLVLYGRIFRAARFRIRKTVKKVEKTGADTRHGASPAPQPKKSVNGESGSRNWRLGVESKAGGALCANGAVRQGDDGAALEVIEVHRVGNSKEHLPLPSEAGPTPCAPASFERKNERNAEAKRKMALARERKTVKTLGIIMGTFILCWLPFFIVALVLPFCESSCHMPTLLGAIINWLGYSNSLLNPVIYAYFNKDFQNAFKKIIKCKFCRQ
Method: Cells expressing the human 5-HT1A receptor were grown to mid-log phase in complete culture medium and then scraped from the culture vessels in ice-cold Ca^2+- and Mg^2+-free Phosphate-buffered saline. The cells were then centrifuged for 10 minutes at 5,000×g and 4° C. and the pellets resuspended in buffer A (15 mM Tris-HCl pH 7.5; 2 mM MgCl2; 0.3 mM EDTA; 1 mM EGTA) and homogenized in a glass-glass homogenizer. The crude membrane fraction was collected by two consecutive centrifugation steps at 35,000×g and 4° C. for 30 minutes separated by a wash step with buffer A. The final membrane pellet was suspended in buffer B (75 mM Tris-HCl pH 7.5; 12.5 mM MgCl2; 0.3 mM EDTA; 1 mM EGTA; 250 mM sucrose) and flash-frozen in liquid nitrogen. Protein content was determined by the BCA method (Interchim, UP40840A).
Radioligand competition binding was performed in duplicate in the wells of a 96 well plate (Master Block, Greiner, 786201) containing binding buffer (50 mM Tris, 5 mM CaCl2, 0.1% ascorbic acid, 10 μg/ml saponin, pH7.4), membrane extracts prepared from the 5-HT1A expressing CHO-K1 cell line (7 μg protein/well), reference tracer (0.9 nM [^3H]-8-OH-DPAT) and test compound in a final volume of 0.1 ml. Nonspecific binding was determined by co-incubation with 200-fold excess of reference competitor (5-HT). The samples were incubated for 1 hour at 25° C., and then filtered over GF/B Unifilter plates (Perkin Elmer 6005177) presoaked in 0.5% PEI, using a Filtermate Harvester (Perkin Elmer, C96162). Filters were washed six times with 0.5 ml ice-cold buffer (50 mM Tris pH 7.4) and 50 μl of Microscint 20 (Packard) were added to each well. The plates were incubated 15 minutes on an orbital shaker and then counted with a TopCount NXT (Packard, C384V01) for 1 minute/well.
Compounds were tested at 1 and 10 μM concentrations, in duplicate: […]

[2] = biological target: T2, TAAR1 receptor (UniProt Q96RJ0); assay: TAAR1 Agonist cAMP Assay; assay type: cell-based, human or mouse; details: CHO-K1 cells expressing TAAR1; cAMP HTRF; 30 minutes at room temperature
T2 sequence (Q96RJ0 1-339): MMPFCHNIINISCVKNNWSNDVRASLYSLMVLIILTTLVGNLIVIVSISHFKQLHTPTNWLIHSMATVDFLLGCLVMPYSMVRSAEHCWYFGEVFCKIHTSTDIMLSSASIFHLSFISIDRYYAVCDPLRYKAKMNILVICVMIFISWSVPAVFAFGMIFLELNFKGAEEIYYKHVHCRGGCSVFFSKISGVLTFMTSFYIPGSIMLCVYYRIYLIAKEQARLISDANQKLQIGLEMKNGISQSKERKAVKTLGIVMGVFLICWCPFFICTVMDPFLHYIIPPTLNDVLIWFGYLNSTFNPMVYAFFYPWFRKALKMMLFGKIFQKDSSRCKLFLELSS
Method: CHO-K1 cells expressing the human TAAR1 receptor (Accession number NP_612200.1) or mouse TAAR1 receptor (Accession number NP_444435.1) were grown in media (Advanced DMEM supplemented with 1% dialyzed fetal bovine serum) without antibiotics. The cells were detached by gentle flushing with phosphate buffered saline containing 5 mM EDTA, recovered by centrifugation and resuspended in assay buffer (Krebs-Ringers Henseleit buffer: 5 mM KCl, 1.25 mM MgSO4, 124 mM NaCl, 25 mM HEPES, 13.3 mM Glucose, 1.25 mM KH2PO4, 1.45 mM CaCl2, 0.5 g/L BSA, supplemented with 1 mM isobutylmethylxanthine). Testing was performed in 384-well plates. 5 μl of cells (3000 cells) were mixed with 5 μl of the test compound diluted in assay buffer and then incubated for 30 minutes at room temperature. cAMP levels were determined using the Cisbio cAMP Gs dynamic HTRF kit (Cisbio, Bedford, MA). The results of the testing are shown in Table 3, with EC50 ranges designated as follows: • A=0.1 μM to 1 μM • B=0.01 μM to <0.1 μM • C=0.001 μM to <0.01 μM • D=0.0001 μM to <0.001 μM

Q: For `NC[C@@H]1CCOc2c(-c3ccncc3)cccc21` [Compound 1, (R)-(8-(pyridin-4-yl)chroman-4-yl)methanamine], which inhibition at 1 µM [1] is on record?
A: > 50%

Q: Which inhibition at 1 µM [1] does the source give for `NC[C@H]1CCOc2c(-c3ccncc3)cccc21` [Compound 2, (S)-(8-(pyridin-4-yl)chroman-4-yl)methanamine] here?
A: > 90%

Q: What does the source list for `CNC[C@H]1CCOc2c(-c3ccncc3)cccc21` [Compound 4, (S)—N-methyl-1-(8-(pyridin-4-yl)chroman-4-yl)methanamine]?
A: inhibition at 1 µM [1]: > 90%; pEC50 [2]: 6.00 to 7.00

Q: Which inhibition at 1 µM [1] does the source give for `CNC[C@@H]1CCOc2c(-c3ccncc3)cccc21` [Compound 3, (R)—N-methyl-1-(8-(pyridin-4-yl)chroman-4-yl)methanamine] here?
A: > 50%

Q: And the pEC50 [2]?
A: 7.00 to 8.00

From patent US20240150330A1, “CHROMANS AND BENZOFURANS AS 5-HT1A AND TAAR1 AGONISTS” (Sunovion Pharmaceuticals Inc., priority 2021, published 2024)
